This is an account of results in a melting point compilation (Tetko et al.; mined from patent text by program, amines drawn as free bases though some values may be those of a salt).

Non-standard residues stand in square brackets, D forms with d. Residues, ends and D or L forms follow the SMILES beside them. *: point of attachment. NHPhenethyl = c1ccc(CCN*)cc1; pGlu = O=C1CC[CH](C(=O)O)N1

A word on the melting point: it is the temperature of the solid-liquid transition. The compound `CCCCCCOc1ccc2c(CBr)c(OCCCCCC)ccc2c1CBr` returned a melting point of 110 to 112 °C.
The result for `Cn1cc(C(=O)C(=O)NC2=CC(=O)OC2)c2ccccc21` reads 262 to 264 °C; that for `Cc1ccc(O)c(Cn2c(NCCCN3CCOCC3)nc3ccc(Cc4c(C)cc(NCCO)cc4C)cc32)n1`, 162 °C; that for `COc1c(O)ccc2cc[nH]c12`, 83 to 84 °C.
The value for `NC(=O)CC(NC(=O)C(CO)NC(=O)CNC(=O)CNC(=O)C1CCC(=O)N1)C(=O)NC(Cc1ccccc1)C(=O)NCCc1ccccc1` (centres undefined) ([pGlu]GGSNF-NHPhenethyl; configuration not given here) was 209 to 211 °C.
Consider `COc1ccc(Cn2c(=O)[nH]c3cc(Cl)ccc3c2=O)cc1`, for which the melting point lay within 254 to 256 °C.
The value for `COC(=O)[C@@H]1C(=O)Nc2ccccc2C[C@H]1c1ccc2c(c1)OCO2` (racemic) was 211 to 214 °C; that for `O=C(Nc1cnc2ccccc2c1)OC1CN2CCC1CC2` (centres undefined) was 135 to 137 °C; that for `NC(=O)Nc1cccc2c1C(=O)c1c-2n[nH]c1-c1ccsc1` was over 280 °C.
The result for `COc1cc2ncnc(N3CCN(C(=O)Nc4ccc(N5CCOCC5)cc4)CC3)c2cc1OC` reads 254 to 256 °C; that for `CCOC(=O)c1ccc(Nc2cc(C)nc3cn[nH]c23)cc1`, 247 to 250 °C.
Consider `O=C(Nc1ccc(CC2CCN(S(=O)(=O)N3CCCCC3)CC2)cc1)C(F)(F)F`, for which the melting point was in the range of 156 to 157 °C.
In turn, `O=[N+]([O-])c1cccc(SC(CCl)S(=O)(=O)c2cccc([N+](=O)[O-])c2)c1` (centres undefined) returned a melting point of 98 to 110 °C.
The value for `CN(C)C(=O)Nc1ccc(OCc2nc(Cl)ccc2Cl)cc1` was 162 °C.
The value for `COc1nc(OC)nc(-n2cnc(SC)n2)n1` was 160 °C.
The result for `COc1cc2[nH]c(=O)nc(C)c2c(C)c1OC` reads 78 to 81 °C.
In the case of `Cc1oc(-c2ccc(C(F)(F)F)cc2)nc1CCOc1ccc(CN(O)C(N)=O)cc1`, the melting point was in the range of 156 to 157 °C.
For the compound `CC(=O)OCCn1nc(C)c(-c2ccc3c(c2)NC(=O)CO3)c1-c1ccc(F)cc1`, the melting point stood at 160 °C.
The value for `COc1ccc(-c2cccc(NC(N)=O)c2)cc1OC1CCCC1` was 174 to 175 °C.
The result for `O=C(c1ccncc1)c1ccc(Cl)c([N+](=O)[O-])c1` reads 114 to 116 °C; that for `COC(=O)C1=C(C)NC(C)=C(C(=O)OCC(O)CO)C1c1cccc([N+](=O)[O-])c1` (centres undefined), 49 to 53 °C; that for `Cc1cccc(Cl)c1NS(=O)(=O)c1n[nH]c(N)n1`, 217 °C.
The value for `COC(=O)c1scc(-c2ccccc2)c1S(=O)(=O)NC(=O)Nc1nc(OC)cc(OC)n1` was 225 to 227 °C.
Regarding `O=C(O)Cc1ccc2[nH]cc(CCNC(=O)OCc3ccccc3)c2c1`, the melting point was in the range of 116 to 117 °C.
The result for `Cn1cc(-c2ccc(F)cc2)c(=O)c(-c2cccc(C(F)(F)F)c2)c1` reads 133 to 134 °C; that for `CC1(C)NC(=O)c2ccc(O)cc21`, 231 to 233 °C; that for `Cc1ncc(C(=O)N2CCCCC2)s1`, 68.7 °C.
In the case of `CCCCCCCCCCCCCCCCCCN(C)CC(O)COC(c1ccccc1)(c1ccccc1)c1ccccc1` (centres undefined), the melting point came to 45 °C.
The result for `O=C(CN1CCNCCNCCNCC1)Nc1c(I)cc(I)c(C(=O)O)c1I` reads 245 to 246 °C; that for `Oc1cncc(Cl)c1CCCOc1cccnc1Oc1cccc(Cl)c1`, 95 to 96 °C; that for `COc1cc(C(=N)N)ccc1OCc1ccc(CN2C(=O)c3ccccc3C2=O)cc1`, 228 to 230 °C.
The result for `COC(=O)c1c(OC(C)C)c(Br)c(Br)n1C` reads 42 to 45 °C; that for `O=C1Nc2ccc(I)cc2C1=NNC(=O)c1ccc(OC(F)(F)F)cc1`, 306 °C.
The result for `Cc1nc(-c2c(Cl)cc(C(F)(F)F)cc2Cl)[nH]c1C` reads 281 to 282 °C; that for `CC(=O)c1cnc(C(=O)C(C)(C)C)cn1`, 41 to 42.5 °C; that for `CC(C)(C)[Si](C)(C)Oc1ccc2c(c1)oc(=O)c1c3ccc(O[Si](C)(C)C(C)(C)C)cc3sc21`, 142 to 144 °C.
`O=C(O)c1ccc(C(=O)NOCC2CCc3ccccc3C2)cc1` (centres undefined) gave a melting point of 203 to 206 °C.
`CNC(=O)CCC(C)=S` displayed a melting point of 67 to 70 °C.
The result for `CCC1(O)CC(=O)OCc2c1cc1n(c2=O)Cc2cc3ccc(F)cc3nc2-1` (centres undefined) reads over 250 °C; that for `CNC(=O)C1(C)Oc2c(C)c(C)c(O)c(C)c2CC1OC` (centres undefined), 139 to 140 °C; that for `COc1cc2c(cc1O)C(=O)CCCC2`, 115 to 116 °C.
The value for `Cc1cccc(COc2cccc(OCc3ccc(C(C)(C)C)cc3)c2)c1C(=O)O` was 122 to 123 °C.
The compound `CC(=O)OC1CCC2(C)C(CCC3=C4C(=O)CC(C(C)CCCOS(=O)(=O)c5ccc(C)cc5)C4(C)CCC32)C1` (centres undefined) yielded a melting point of 158 to 160 °C.
The value for `CC(=O)OCCCc1nc(-c2ccc(Cl)cc2)co1` was 37 to 37.5 °C.
The result for `Oc1ccc2nc(NC3=NCCN3)[nH]c2c1` reads 254 to 258 °C; that for `c1cncc(OCCCCCCOc2cccnc2)c1`, 85 °C.
The result for `O=C(O)CCCc1cc2cc(Cl)ccc2n1S(=O)(=O)c1ccc(N2CCOCC2)nc1` reads 78 to 82 °C; that for `O=C(CCC#Cc1ccccn1)Nc1ccc(F)cc1`, 190 °C; that for `COc1nc(C)c(C)cc1NC(=S)N1CCN(c2cc(C)cc(C)c2)CC1`, 192 to 193 °C.
On to `COc1ccc(-c2nn3c(N4CCCC4)nnc3c3ccccc23)cc1`, for which the melting point fell in the range of 196 to 198 °C.
The value for `Cn1c(C(F)(F)F)cc(=O)n(-c2ccc3snc(C4OCC(CS(C)(=O)=O)O4)c3c2)c1=O` (centres undefined) was 184 to 188 °C; that for `C#CC[C@H]1CC[C@H](CO)CC1` was 106 to 108 °C; that for `CCCCCCCCNc1c(Nc2ccc(CC(C)NC[C@H](O)COc3ccccc3)cc2)c(=O)c1=O` (some centres undefined) was 146 to 155 °C.
As to `O=C(O)CN1C(=O)C(=C2CCCCC2)SC1=S`, the melting point fell in the range of 196 to 201 °C.
The value for `COc1ccc(-n2nc(C(F)(F)F)cc2-c2ccc(S(C)(=O)=O)cc2)cc1F` was 178 to 180 °C.
As for `CC(=O)SCc1ccc(C#Cc2ccc(C=O)cc2)cc1`, the melting point was 128 to 129 °C.
The value for `CC(=O)NC[C@H]1CN(c2ccc(C(=O)c3ccc4ccc(C)cn34)cc2)C(=O)O1` was 237 to 239 °C; that for `O=C(O)C(Cc1ccccc1)Cn1ccnc1` (racemic) was 159 to 163 °C; that for `CCO[C@@H](Cc1ccc(OCCc2nc(-c3ccc(-c4ccccc4)cc3)oc2C)c2ccsc12)C(=O)O` was 163 to 164 °C.
The value for `COc1ccccc1CN1CCN(CCCOc2ccc3c(C)cc(=O)[nH]c3c2)CC1` was 151 to 152 °C; that for `CC(C)(C)Cc1cc(C2(N)CC2)no1` was 39 to 47 °C.
`CCOC(=O)C1=C(C)NC(C)=C(C(=O)OC)C1c1cccc(C(F)(F)F)c1` (single isomer, unassigned; (-)): the melting point is 134 to 135 °C.
The value for `O=C(NCCO)C1CCNCC1` was 107 to 108 °C; that for `CC(=O)Oc1c(Cc2ccccc2)cc(C(C)=O)c2ccccc12` was 118 to 120 °C.
The result for `COc1ccc(CCN(CCc2cccc(C(F)(F)F)c2)C(=O)CCCCC(N)=O)cc1OC` reads 125 to 126 °C; that for `NS(=O)(=O)c1cc(C(=O)O)cc(NCCCC(=O)O)c1Oc1ccccc1`, 240 to 241 °C.
The result for `O=S(=O)(Cl)c1nc2nc(OCC(F)(F)F)ccn2n1` reads 91 to 96 °C.
`CCOC(=O)C1[C@@H]2[C@@H](O)[C@@H]3O[C@H](c4ccc(C(F)(F)F)cc4)OC[C@H]3O[C@H]12` (some centres undefined) displayed a melting point of 128 to 131 °C.
The value for `CC(O)c1ccc2c(c1)ncn2-c1cccc(-c2cccnc2O)c1` (centres undefined) was 133 to 137 °C.
The result for `CC(CN(C)C)Oc1ccc(-c2n[nH]c3ncccc23)cc1` (centres undefined) reads 130 to 132 °C.
The value for `CCc1c(OC)nc2nc(C(N)=S)cn2c1C` was 248 to 259 °C.
As to `COc1ccccc1-n1c(-c2cc(-c3ccc(Cl)cc3)c(N3CCOCC3)s2)nc2ccccc2c1=O`, the melting point lay within 216 to 217 °C.
The result for `CCCCC(=O)NCCCSCCO` reads 7 °C; that for `COc1ccc(C2COc3cc(O)c(O)cc3C2)cc1` (centres undefined), 160 °C; that for `C(=CCN1C(c2ccccc2)CCCC1c1ccccc1)CN1C(c2ccccc2)CCCC1c1ccccc1` (centres undefined), 197 to 200 °C.
The result for `O=C1OC2(CCN(C(=O)Nc3cnc(-c4ccccc4)cn3)CC2)c2cc(F)ccc21` reads 222 to 224 °C; that for `CC(C)(C)OC(=O)N1CCN(c2ccc(N=C(N)c3cccs3)cc2)CC1`, 164 °C; that for `CCCCCCCCCCCCCc1cc(C(=O)OCC)c[nH]1`, 59.5 to 60.5 °C.
Take `CC(=O)OCc1cc(=O)c(Oc2ccc(F)cc2)c(-c2ccc(S(C)(=O)=O)cc2)o1`: the melting point turned out to be 180 °C.
The value for `CC1(O)OC(=O)C(c2c(F)cc(F)cc2F)=C1c1ccc2ccccc2c1` (centres undefined) was 164 to 165 °C.
The result for `Cc1cccc2c1C(=O)C(=S)N2` reads 265 °C.
The value for `COc1ccc(C(=O)N2CCN(C(=O)C3=Cc4cc(OC)c(OC)cc4CC3)CC2)cc1OC` was 190 to 191 °C; that for `Cc1cc(C#N)c(Cl)nc1C` was 83 to 87 °C; that for `COc1ccc(C2CNCc3cc(N)ccc32)cc1OC` (centres undefined) was 157 to 159 °C.
Compound `Cn1c(-c2ccc(Br)cc2)cc2ccccc21` displayed a melting point of 114 to 115 °C.
The value for `CCN(CC)C(=O)CCC(=O)Oc1cc(-n2c(=O)cc(C(F)(F)F)n(C)c2=O)c(F)cc1Cl` was 91 to 93 °C; that for `NC(=O)c1cccc2c1CCCc1ccccc1-2` was over 250 °C.
The result for `CNC(=O)c1c(-c2ccccc2)noc1C=C(N)c1ccccc1` reads 181 to 183 °C; that for `CC(Oc1ccc(N(C)c2cnc3cc(Cl)ccc3n2)cc1)C(=O)O` (centres undefined), 204 °C.
